Patent US20050154536A1, “Two-part drug discovery system” (The University of Pittsburgh - of the Commonwealth System …, priority 2001, published 2005)

Columns and labels:
[1] = system: LPS-stimulated RAW 264.7 murine macrophage-like cells; details: LPS-stimulated RAW 264.7 cells; concentration-dependent
RAW 264.7 cells = experiment: Steady-state expression of TNF and iNOS transcripts in RAW 264.7 cells; assay type: cell-based, murine; details: RAW 264.7 cells incubated with LPS
C57B1/6 mice = experiment: Endotoxemia protocol in C57B1/6 mice (LPS alone); assay type: in vivo
Protocol: Mice: All animal experiments were approved by the Institutional Animal Care and Use Committee of the University of Pittsburgh. All studies were carried out in C57B1/6 mice (6-10 wk old mice; Charles River Laboratories, Charles River, Me.).
Endotoxemia, in which LPS is directly introduced into an animal, is a highly reproducible means for inducing acute systemic inflammation. […] Circulating levels of TNF and IL-10 increase rapidly and decay quickly, whereas IL-6 levels peak at approximately 2-3 h and decay more slowly. The levels of NO, measured as the stable reaction product NO2^−NO3^−, remain elevated for 24 h. Levels of TNF and NO2^−/NO3^− seem to be saturated at 3 mg/kg whereas IL-6 and IL-10 saturate at 6mg/kg (FIG. 8): at 12 mg/kg (FIG. 9), the levels of most analytes are not much higher as compared to those of animals treated with 6 mg/kg LPS.

Molecule: NC(=O)C1=CN([C@@H]2O[C@H](COP(=O)(O)OP(=O)(O)OC[C@H]3O[C@@H](n4cnc5c(N)ncnc54)[C@H](O)[C@@H]3O)[C@@H](O)[C@H]2O)C=CC1 [NAD+, Reduced nicotinamide adenine dinucleotide]
- concentration of NO2−/NO3− in supernatants [1]: decreased
- concentration of TNF-α in supernatants [1]: decreased
- steady-state expression of TNF transcripts (RAW 264.7 cells): decreased
- steady-state expression of iNOS transcripts (RAW 264.7 cells): decreased

Molecule: lipopolysaccharide [LPS]
- survival until final time point (C57B1/6 mice; LPS 3, 6 or 12 mg/kg intraperitoneally, 24 h following injection): All of the mice survived
- time of IL-6 peak level in circulation (C57B1/6 mice; LPS 3 or 6 mg/kg intraperitoneally): 2 to 3 h
- steady-state expression of TNF transcripts (RAW 264.7 cells): markedly increased
- steady-state expression of iNOS transcripts (RAW 264.7 cells): markedly increased
